In PubChem BioAssay (NCI):
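All cell lines were grown in 96-well plates and treated with compound for 48 hours. TGI: concentration producing complete growth inhibition.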

Columns and labels:
Experiment in all cases: DTP human tumour cell line panel, 48 h
OVCAR-5 ovarian = test system: OVCAR-5 ovarian
M14 melanoma = test system: M14 melanoma
SW-620 colon = test system: SW-620 colon
SK-OV-3 ovarian = test system: SK-OV-3 ovarian
T-47D breast = test system: T-47D breast
OVCAR-8 ovarian = test system: OVCAR-8 ovarian
HS 578T breast = test system: HS 578T breast
UO-31 renal = test system: UO-31 renal
MALME-3M melanoma = test system: MALME-3M melanoma
HOP-62 NSCLC = test system: HOP-62 NSCLC
NCI/ADR-RES ovarian = test system: NCI/ADR-RES ovarian
SF-268 CNS = test system: SF-268 CNS
CAKI-1 renal = test system: CAKI-1 renal
U251 CNS = test system: U251 CNS
EKVX NSCLC = test system: EKVX NSCLC
MOLT-4 leukemia = test system: MOLT-4 leukemia
PC-3 prostate = test system: PC-3 prostate
RXF 393 renal = test system: RXF 393 renal
A498 renal = test system: A498 renal
HOP-92 NSCLC = test system: HOP-92 NSCLC

Measured: TGI

C[n+]1c2ccccc2c(C(=O)Nc2ccc(S(=O)(=O)Nc3ccnn3-c3ccccc3)cc2)c2ccccc21
not listed: RXF 393 renal | A498 renal | HOP-92 NSCLC
> 100 µM: all other assays above

O=[N+]([O-])c1ccc(-c2csc3nc(-c4ccccc4)nn23)cc1
not listed: T-47D breast
> 100 µM: all other assays above

CC(=O)N1C(c2[nH]c3ccccc3c2-c2ccccc2)CCN1c1ccccc1 (stereo not given)
not listed: U251 CNS | A498 renal | HOP-92 NSCLC
> 10 µM: all other assays above

CC1=C(C(=O)O)N2C(=O)[C@@H](NC(=O)C(c3ccc(O)cc3)N3CSC(=S)N(C(C)C)C3)C2SC1 (stereo not given in full)
not listed: SW-620 colon | T-47D breast | HS 578T breast | NCI/ADR-RES ovarian | CAKI-1 renal | PC-3 prostate | RXF 393 renal
> 100 µM: all other assays above

COC12OC3(C4OC41)C(C(=O)O[C@H]3CO[Si](C)(C)C(C)(C)C)C2C(=O)Oc1ccccc1 (stereo not given in full)
not listed: RXF 393 renal
> 100 µM: all other assays above

ONc1ncnc2nc[nH]c12
not listed: SK-OV-3 ovarian | T-47D breast | HS 578T breast | NCI/ADR-RES ovarian | EKVX NSCLC | PC-3 prostate | RXF 393 renal | A498 renal
> 100 µM: all other assays above

Cc1c(/C=N/NC(=O)c2cc(Br)cc(Br)c2O)c(=O)n(-c2ccccc2)n1C
94.2 µM: CAKI-1 renal
not listed: T-47D breast | HS 578T breast | NCI/ADR-RES ovarian | PC-3 prostate | RXF 393 renal
> 100 µM: all other assays above

S=c1sc2c(s1)SCCCCSCCCCSc1sc(=S)sc1SCCCCSCCCCS2
not listed: RXF 393 renal | HOP-92 NSCLC
> 100 µM: all other assays above

CCOP(=O)(OCC)C1CC(O)C(=O)N1 (stereo not given)
not listed: T-47D breast | CAKI-1 renal | RXF 393 renal | HOP-92 NSCLC
> 100 µM: all other assays above

CCC1C(C#N)=C(N)OC2=C1C(=O)CC(C)(C)C2 (stereo not given)
not listed: T-47D breast | UO-31 renal | RXF 393 renal
> 100 µM: all other assays above

CCOC(=O)N/N=C(/OCC)c1ccccc1
not listed: M14 melanoma | PC-3 prostate
> 100 µM: all other assays above

C=CCOc1ccc(/C(N=Nc2ccc(Cl)cc2)=N/NC(=O)c2ccccc2)cc1OC
61.6 µM: T-47D breast
91.6 µM: HOP-92 NSCLC
not listed: SK-OV-3 ovarian | RXF 393 renal
> 100 µM: all other assays above

CC(=O)N1C(Nc2ccccn2)CCN1c1ccccc1 (stereo not given)
not listed: U251 CNS | A498 renal
> 10 µM: all other assays above

COc1cc(Cn2c3ccccc3c3cc(C)c4c(c32)C=CC(C)(CCC=C(C)C)O4)cc2c1[nH]c1ccccc12 (stereo not given)
not listed: T-47D breast | HS 578T breast | NCI/ADR-RES ovarian | PC-3 prostate
> 100 µM: all other assays above

N=c1oc2cc(O)ccc2cc1C(=O)NCc1ccccc1
69.7 µM: CAKI-1 renal
85 µM: RXF 393 renal
53.5 µM: NCI/ADR-RES ovarian
45.4 µM: HS 578T breast
81.6 µM: SW-620 colon
70 µM: SK-OV-3 ovarian
33.7 µM: T-47D breast
58.7 µM: MALME-3M melanoma
76.3 µM: SF-268 CNS
53.3 µM: MOLT-4 leukemia
68.1 µM: OVCAR-8 ovarian
not listed: A498 renal | HOP-92 NSCLC
> 100 µM: all other assays above

CCOC(=O)c1ccc(N=C2C(=S)N(c3ccc(C(=O)OCC)cc3)C(=N)N2/N=C/c2ccccc2)cc1
28.9 µM: UO-31 renal
63.1 µM: T-47D breast
24.9 µM: M14 melanoma
> 100 µM: OVCAR-8 ovarian | HS 578T breast | NCI/ADR-RES ovarian | EKVX NSCLC
49.1 µM: MALME-3M melanoma
59 µM: SK-OV-3 ovarian
18.4 µM: PC-3 prostate
19.3 µM: RXF 393 renal
36.2 µM: HOP-92 NSCLC
42.2 µM: CAKI-1 renal
52 µM: SF-268 CNS
40.5 µM: OVCAR-5 ovarian

N#CCc1nc2ccccc2c(=O)[nH]1
not listed: HS 578T breast | MALME-3M melanoma | SF-268 CNS | RXF 393 renal | A498 renal
> 100 µM: all other assays above

CCN(CC)CCCNc1nc(=O)[nH]c(C)c1C(=O)Nc1cccc2cc3ccccc3cc12
not listed: HS 578T breast | SF-268 CNS | A498 renal
> 100 µM: all other assays above

O=C(/C=C/c1ccccc1)/C=N/N1C(=S)N(c2ccccc2)C(=Nc2ccccc2)C1=Nc1ccccc1
not listed: A498 renal
> 100 µM: all other assays above

N=c1c2c(C(N)=O)cn(C3OC(CO)C(O)C3O)c2ncn1O (stereo not given)
0.447 µM: NCI/ADR-RES ovarian
0.607 µM: OVCAR-8 ovarian
0.399 µM: CAKI-1 renal
3.14 µM: U251 CNS
0.873 µM: HOP-62 NSCLC
> 100 µM: HOP-92 NSCLC
> 20.6 µM: UO-31 renal
0.477 µM: MALME-3M melanoma
3.69 µM: T-47D breast
3.71 µM: RXF 393 renal
0.491 µM: MOLT-4 leukemia
1.3 µM: OVCAR-5 ovarian
6.67 µM: EKVX NSCLC
> 36.3 µM: SK-OV-3 ovarian
0.497 µM: SW-620 colon
0.506 µM: M14 melanoma
1.14 µM: PC-3 prostate
7.91 µM: HS 578T breast

COc1cccc(N=Cc2cc3cc(Br)ccc3nc2Cl)c1
not listed: U251 CNS | A498 renal
> 50 µM: all other assays above

COCCN(C(C)=O)C1CCC2(SCCS2)c2[nH]c3ccccc3c21 (stereo not given)
not listed: M14 melanoma | SK-OV-3 ovarian | T-47D breast | UO-31 renal
> 100 µM: all other assays above

NC(=O)N/N=C1\CCCCc2ccccc21
not listed: SK-OV-3 ovarian | HS 578T breast | A498 renal
> 10 µM: all other assays above

CCCNC(=O)c1cc(NC(=O)c2cc(NC(=O)/C=C/c3ccccc3)c(OC)c(OC)c2)c(OC)c(OC)c1
57.1 µM: OVCAR-5 ovarian
25.1 µM: SK-OV-3 ovarian
6.18 µM: HS 578T breast
33.5 µM: PC-3 prostate
17 µM: OVCAR-8 ovarian
8.31 µM: RXF 393 renal
13.9 µM: U251 CNS
56 µM: NCI/ADR-RES ovarian
54.1 µM: EKVX NSCLC
> 100 µM: M14 melanoma | SW-620 colon | MOLT-4 leukemia
19.4 µM: HOP-62 NSCLC
20.7 µM: UO-31 renal
8.74 µM: MALME-3M melanoma
30.8 µM: A498 renal
8.68 µM: SF-268 CNS

Cc1nc2cccc(F)c2c(=O)n1C1CCCCNC1=O (stereo not given)
not listed: MALME-3M melanoma | A498 renal
> 10 µM: all other assays above

Cc1ccc(C2=Nc3cccc4cccc(c34)N2)cc1
not listed: OVCAR-5 ovarian | A498 renal
> 100 µM: all other assays above

O=S(=O)(O)c1ccc(O)c2ncc(Cl)cc12
not listed: SK-OV-3 ovarian | HS 578T breast | MALME-3M melanoma | SF-268 CNS
> 100 µM: all other assays above
